In brackets after ≈: the same amount, converted by molar mass. Several values for one entry are separate records, joined by “and”; a condition that tells them apart may be missing. Equal values may be shown once. Read-outs that look alike come from different tables or passages of the source.
Experiments:
Gram-negative bacteria = experiment: MIC by broth microdilution (CLSI); format: cell-based; conditions: compared to that against Staphylococcus
clinically isolated MRSA = experiment: MIC against clinical isolates; format: cell-based, Staphylococcus aureus; conditions: controls moxalactam and cefepime
Experimental: (§1) The clinical strains of MRSA and MSSA isolated in Beijing, Sichuan, and Shanghai in the last 3 years totaled more than 300 strains. Clinical isolates were stored at −80°C in 20% glycerol-rich brain heart infusion (BHI) and passaged twice on Trypticase soy agar prior to the experiment. Before the experiment, 16s RNA identification was performed, and then PCR was used to distinguish MRSA and MSSA by identifying the mecA gene. Furthermore, the MIC of cefoxitin against clinical isolates was tested again. The drug sensitivity results were judged according to the criteria established by the American Society for Clinical Laboratory Standardization. MRSA was determined by a cefoxitin MIC of ≥8 μg/mL ([36]). Finally, 100 strains each of MRSA and MSSA were randomly selected from the identified strains for subsequent experiments. All chemical reagents and antibiotics were purchased from Sigma (St. Louis, MO). S. aureus was grown at 30°C in BHI broth (Oxoid) with constant shaking or on BHI agar plates unless otherwise noted. […]
(§2) The antibacterial spectrum and susceptibility of WYBQ-4 against MRSA USA300, MSSA 29213, and clinically isolated S. aureus were determined using a broth microdilution method following the guidelines outlined by the Clinical and Laboratory Standards Institute (CLSI) ([37], [38]). […] The absorbance was measured at 600 nm, and experiments were repeated in three biological replicates.

clinically isolated MSSA = experiment: MIC against clinical isolates; format: cell-based, Staphylococcus aureus; conditions: controls moxalactam and cefepime
Experimental: as §1, §2

MRSA USA300 = experiment: TEM analysis of cell morphology / division defects; format: cell-based, Staphylococcus aureus; conditions: 4 μg/mL (1/2× MIC), 3 h
Experimental: MRSA USA300 was cultured overnight, diluted (1:100) into 20 mL of Trypticase soy broth (TSB) medium, and incubated at 30°C with shaking until the optical density at 600 nm (OD600) reached 0.3. […] Bacterial cells treated with 4 μg/mL ceftaroline fosamil (1/2 of their respective MIC) served as a control group. Untreated S. aureus served as a negative control. Bacteria were collected and washed in PBS and resuspended in 4% (vol/vol) glutaraldehyde fixation overnight. The fixed samples were further processed, and morphological changes in S. aureus were observed by TEM (JSM-7900F; JEOL, Japan).

Streptococcus pyogenes = experiment: MIC by broth microdilution (CLSI); format: cell-based
[1] = system: methicillin-resistant Staphylococcus epidermidis (MRSE) 12228; experiment: MIC by broth microdilution (CLSI); format: cell-based
PBP2a = PBP2a (Staphylococcus aureus, UniProt Q53707); experiment: PBP binding, bocillin competition fluorescence gel assay
PBP2a, sequence (Q53707 entry or part of it): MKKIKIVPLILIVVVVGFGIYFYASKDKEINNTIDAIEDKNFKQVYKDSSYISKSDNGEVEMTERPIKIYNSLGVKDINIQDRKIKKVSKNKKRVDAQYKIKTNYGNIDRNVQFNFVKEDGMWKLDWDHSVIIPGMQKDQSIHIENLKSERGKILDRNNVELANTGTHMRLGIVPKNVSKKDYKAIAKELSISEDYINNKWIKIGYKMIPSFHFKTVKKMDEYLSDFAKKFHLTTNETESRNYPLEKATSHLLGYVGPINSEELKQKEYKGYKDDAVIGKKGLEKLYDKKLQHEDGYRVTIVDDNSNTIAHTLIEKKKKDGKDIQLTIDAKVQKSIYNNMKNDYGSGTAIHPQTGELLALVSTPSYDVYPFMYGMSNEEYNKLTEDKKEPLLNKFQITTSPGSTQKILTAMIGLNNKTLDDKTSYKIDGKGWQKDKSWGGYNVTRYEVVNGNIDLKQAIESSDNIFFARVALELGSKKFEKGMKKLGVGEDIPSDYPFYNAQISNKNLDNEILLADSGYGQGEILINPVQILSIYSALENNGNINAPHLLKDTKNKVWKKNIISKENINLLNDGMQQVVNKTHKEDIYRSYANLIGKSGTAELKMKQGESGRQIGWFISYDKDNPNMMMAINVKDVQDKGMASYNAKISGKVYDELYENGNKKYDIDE
Experimental: (§3) Using the genome of S. aureus USA300 as a template, PCR was performed to amplify PBP1, PBP2, PBP3, PBP4, and PBP2a genes with primers designed according to Table 1. Then, the amplified fragments were treated with BamHI/XhoI and then inserted into the cloning site of the BamHI/XhoI-digested pET28a to yield pET28a-PBP1, pET28a-PBP2, pET28a-PBP3, pET28a-PBP4, and pET28a-PBP2a, respectively. The plasmid was transformed into E. coli BL21(DE3) and cultured in LB medium containing Kan resistance until the OD600 reached 0.6, and PBP expression was induced overnight at 16°C by adding 0.5 mM IPTG (isopropyl-β-D-thiogalactopyranoside). The bacteria were then lysed by sonication, the […] was collected, and the proteins were purified using a HIS-Select nickel affinity gel system (Beyotime, Shanghai, China).
(§4) PBP binding assays were performed as previously described ([30], [31]). Selective labeling of PBP from preincubated samples ([…] protein) with various concentrations of WYBQ-4 was performed for 15 min, and then 25 μM BOCILLIN FL (Invitrogen) was added, followed by an additional 10 min at 37°C. Proteins were separated by SDS-PAGE, and the PBPs were detected by a gel fluorescence imaging instrument (excitation, 488 nm; emission, 530 nm).

PBP3 = PBP3 (Staphylococcus aureus, UniProt Q9XDB3); experiment: as above; conditions: dose-dependent
PBP3, sequence (Q9XDB3 1-691): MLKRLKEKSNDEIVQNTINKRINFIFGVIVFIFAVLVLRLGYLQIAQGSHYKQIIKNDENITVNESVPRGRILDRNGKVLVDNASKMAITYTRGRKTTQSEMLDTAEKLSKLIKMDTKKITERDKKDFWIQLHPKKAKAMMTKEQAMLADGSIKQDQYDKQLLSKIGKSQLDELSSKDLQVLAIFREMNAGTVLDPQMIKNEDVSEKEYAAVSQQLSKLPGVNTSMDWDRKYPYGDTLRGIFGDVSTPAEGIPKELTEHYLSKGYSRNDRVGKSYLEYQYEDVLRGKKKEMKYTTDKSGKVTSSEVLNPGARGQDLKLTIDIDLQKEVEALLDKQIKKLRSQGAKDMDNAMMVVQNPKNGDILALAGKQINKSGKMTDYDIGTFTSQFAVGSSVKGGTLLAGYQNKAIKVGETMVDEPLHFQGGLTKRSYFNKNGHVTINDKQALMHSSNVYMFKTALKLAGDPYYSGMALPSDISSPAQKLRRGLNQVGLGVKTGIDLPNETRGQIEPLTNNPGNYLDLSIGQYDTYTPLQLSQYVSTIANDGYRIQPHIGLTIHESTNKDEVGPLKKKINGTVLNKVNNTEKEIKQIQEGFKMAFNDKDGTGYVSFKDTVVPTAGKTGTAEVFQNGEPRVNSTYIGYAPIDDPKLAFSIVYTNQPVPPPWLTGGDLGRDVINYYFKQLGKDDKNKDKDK
Experimental: as §3, §4

PBP4 = PBP4 (Staphylococcus aureus, UniProt P72355); experiment: as above; conditions: dose-dependent
PBP4, sequence (P72355 25-431): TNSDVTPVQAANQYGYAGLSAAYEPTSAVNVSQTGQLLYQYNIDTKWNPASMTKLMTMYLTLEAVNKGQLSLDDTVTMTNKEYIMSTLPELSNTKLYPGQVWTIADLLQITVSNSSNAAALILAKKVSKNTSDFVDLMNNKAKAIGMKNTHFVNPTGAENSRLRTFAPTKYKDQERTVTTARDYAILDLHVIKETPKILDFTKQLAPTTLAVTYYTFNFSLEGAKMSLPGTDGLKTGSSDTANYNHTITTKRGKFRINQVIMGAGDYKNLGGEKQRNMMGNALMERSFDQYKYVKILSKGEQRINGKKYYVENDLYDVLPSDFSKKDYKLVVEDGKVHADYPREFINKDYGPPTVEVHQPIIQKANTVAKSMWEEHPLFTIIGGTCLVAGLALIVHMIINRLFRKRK
Experimental: as §3, §4

PBP1 = PBP1 (Staphylococcus aureus, UniProt Q53725); experiment: as above; conditions: dose-dependent
PBP1, sequence (Q53725 1-744): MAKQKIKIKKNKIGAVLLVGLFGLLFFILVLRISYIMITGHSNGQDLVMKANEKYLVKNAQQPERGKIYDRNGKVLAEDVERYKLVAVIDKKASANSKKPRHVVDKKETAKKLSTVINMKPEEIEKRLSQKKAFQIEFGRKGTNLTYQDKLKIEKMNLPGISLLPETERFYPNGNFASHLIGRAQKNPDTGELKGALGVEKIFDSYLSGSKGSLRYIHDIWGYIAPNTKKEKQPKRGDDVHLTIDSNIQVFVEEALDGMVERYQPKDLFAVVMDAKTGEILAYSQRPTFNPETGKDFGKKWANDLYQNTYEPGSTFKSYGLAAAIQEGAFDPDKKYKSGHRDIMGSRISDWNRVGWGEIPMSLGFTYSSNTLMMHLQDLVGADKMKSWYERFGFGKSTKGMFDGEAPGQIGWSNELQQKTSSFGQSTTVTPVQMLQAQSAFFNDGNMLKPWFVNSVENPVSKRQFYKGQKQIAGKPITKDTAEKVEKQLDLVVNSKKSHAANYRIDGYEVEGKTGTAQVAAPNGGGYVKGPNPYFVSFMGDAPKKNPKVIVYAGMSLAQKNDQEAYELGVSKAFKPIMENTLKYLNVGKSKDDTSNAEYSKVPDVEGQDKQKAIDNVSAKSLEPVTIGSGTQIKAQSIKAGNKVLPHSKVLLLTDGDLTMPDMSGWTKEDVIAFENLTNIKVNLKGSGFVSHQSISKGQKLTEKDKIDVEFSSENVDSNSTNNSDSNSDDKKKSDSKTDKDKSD
Experimental: as §3, §4

PBP2 = PBP2 (Staphylococcus aureus, UniProt Q9R744); experiment: as above
PBP2, sequence (Q9R744 1-727): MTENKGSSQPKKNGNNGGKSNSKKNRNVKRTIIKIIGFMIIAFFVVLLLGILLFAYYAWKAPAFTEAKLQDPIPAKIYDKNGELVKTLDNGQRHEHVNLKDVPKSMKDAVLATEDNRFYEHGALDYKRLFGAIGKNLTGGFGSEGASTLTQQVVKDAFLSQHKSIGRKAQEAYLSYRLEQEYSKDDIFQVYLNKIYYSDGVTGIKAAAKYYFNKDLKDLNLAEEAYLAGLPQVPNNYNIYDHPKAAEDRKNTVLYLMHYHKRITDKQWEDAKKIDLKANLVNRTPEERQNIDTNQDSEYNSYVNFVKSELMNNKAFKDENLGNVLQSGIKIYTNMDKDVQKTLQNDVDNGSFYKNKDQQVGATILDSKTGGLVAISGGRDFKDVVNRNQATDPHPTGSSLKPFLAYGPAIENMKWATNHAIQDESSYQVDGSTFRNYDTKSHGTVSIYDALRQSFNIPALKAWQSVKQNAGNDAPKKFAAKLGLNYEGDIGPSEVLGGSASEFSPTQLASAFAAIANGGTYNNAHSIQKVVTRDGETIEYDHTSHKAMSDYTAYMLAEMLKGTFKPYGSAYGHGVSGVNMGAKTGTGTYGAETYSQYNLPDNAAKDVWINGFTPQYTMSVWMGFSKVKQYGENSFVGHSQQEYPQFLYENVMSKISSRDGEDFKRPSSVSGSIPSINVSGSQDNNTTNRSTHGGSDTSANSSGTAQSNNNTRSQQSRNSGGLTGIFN
Experimental: as §3, §4

HEK-293T cells = experiment: Cytotoxicity assay (cell viability); format: cell-based
Experimental: (§5) Cytotoxicity assay. The cytotoxicity of WYBQ-4 against A549, HEK-293T, or HepG2 cells was evaluated with a cell counting kit-8 kit (CCK8; US Everbright, Suzhou, China) according to the manufacturer’s instructions ([41]). In brief, 5 × 10^4 cells were seeded in 96-well plates containing prewarmed medium (100 μL) and incubated for 24 h at 37°C in 5% CO2. Then, various concentrations of WYBQ-4 (0 to 512 μg/mL) were added and further incubated for 24 h. Afterward, the cells were incubated with 100 μL of medium with 10 μL of CCK8 solution (Sigma-Aldrich) for 4 h. Finally, a solution of the purple precipitate dissolved in dimethyl sulfoxide (DMSO) was added to a 96-well plate, and the absorbance was measured at 450 nm.

HepG2 cells = experiment: Cytotoxicity assay (cell viability); format: cell-based
Experimental: as §5

A549 cells = experiment: Cytotoxicity assay (cell viability); format: cell-based
Experimental: as §5

C#CCO[C@@]1(NC(=O)CSc2cccc(C)c2)C(=O)N2C(C(=O)O)=C(CSc3nnnn3C)CSC21 (some centres unmarked) [WYBQ-4]
antibacterial activity (Gram-negative bacteria): weak
bacteriostatic activity (MIC) versus control drugs (clinically isolated MRSA): better bacteriostatic activity than the control drugs
bacteriostatic activity (MIC) versus control drugs (clinically isolated MSSA): better bacteriostatic activity than the control drugs
Asymmetry of bacterial division (number of cells) (MRSA USA300): 38
Distortion of septa (number of cells) (MRSA USA300): 27
Percentage of defective cells (asymmetry of bacterial division) (MRSA USA300): 40.9 b %
Percentage of defective cells (distortion of septa) (MRSA USA300): 29.0 a %
Percentage of defective cells (thin cell walls) (MRSA USA300): 63.4% and 63.4 c %
Thin cell walls (number of cells) (MRSA USA300): 59
MIC (Streptococcus pyogenes): 1 µg/mL (≈ 1.83 µM)
MIC [1]: 4 µg/mL (≈ 7.32 µM)
IC50 (PBP2a): 3.66 µM
concentration that completely competed for the binding of bocillin (PBP2a; PBP2a): 2 µg/mL
affinity for PBP3 (bocillin competition) (PBP3): had an affinity
affinity for PBP4 (bocillin competition) (PBP4): had an affinity
affinity for PBP1 (bocillin competition) (PBP1): had an affinity
concentration at which bocillin fluorescence disappeared completely (PBP2): 0.25 µg/mL
cell viability (HEK-293T cells): still viable
cell viability (HEK-293T cells; HEK-293T, 0-128 μg/mL): did not affect the viability
cell viability (HepG2 cells): still viable
cell viability (HepG2 cells; HepG2, 0-128 μg/mL): did not affect the viability
cell viability (A549 cells): still viable
cell viability (A549 cells; A549, 0-128 μg/mL): did not affect the viability

Source: article PMC9603521, “WYBQ-4: a New Bactericidal Agent against Methicillin-Resistant Staphylococcus aureus” (Microbiology Spectrum, 2022)
